“And” between values parts separate entries of the source, which are not always exact repeats. Equal values may be shown once.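 How tested: cells in 96-well plates exposed to compound for 48 hours at five concentrations. GI50 marks 50% less growth. TGI denotes the concentration required for complete inhibition of growth.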 Where a SMILES comes first, the peptide text is derived from it. The star is where a group is joined. Cbz = O=C(OCc1ccccc1)*; Boc = CC(C)(C)OC(=O)*; OSu = O=C1CCC(=O)N1O*; Bn = c1ccc(C*)cc1
What was measured:
Test in all cases: DTP human tumour cell line panel, 48 h
M14 melanoma = system: M14 melanoma
SF-295 CNS = system: SF-295 CNS
OVCAR-5 ovarian = system: OVCAR-5 ovarian
SW-620 colon = system: SW-620 colon
OVCAR-8 ovarian = system: OVCAR-8 ovarian
MCF7 breast = system: MCF7 breast
RPMI-8226 leukemia = system: RPMI-8226 leukemia
HS 578T breast = system: HS 578T breast
DU-145 prostate = system: DU-145 prostate
SK-MEL-5 melanoma = system: SK-MEL-5 melanoma

Compound | GI50 (M14 melanoma) [µM] | TGI (M14 melanoma) | GI50 (SF-295 CNS) | TGI (SF-295 CNS) [µM] | GI50 (OVCAR-5 ovarian) | TGI (SW-620 colon) [µM] | GI50 (OVCAR-8 ovarian) | TGI (OVCAR-8 ovarian) | GI50 (MCF7 breast) [µM] | TGI (RPMI-8226 leukemia) [µM] | GI50 (HS 578T breast) | TGI (HS 578T breast) [µM] | TGI (DU-145 prostate) | TGI (OVCAR-5 ovarian) [µM] | TGI (MCF7 breast) [µM] | TGI (SK-MEL-5 melanoma) [µM]
CC[C@@]1(O)C(=O)OCc2c1cc1n(c2=O)Cc2c-1nc1ccccc1c2C=Nc1ccccc1N[C@@H]1c2cc3c(cc2[C@@H](c2cc(OC)c(O)c(OC)c2)[C@H]2C(=O)OC[C@@H]21)OCO3 | 0.0322 | 6.02 µM and 1.03 µM | 0.149 µM and 0.134 µM | > 50 | 0.847 µM and 0.281 µM | > 100 | 0.0551 µM and 0.28 µM | 2.15 µM and 4.12 µM | < 0.005 | > 50 | 4.87 µM and 0.875 µM | > 100 | 0.0979 µM and 0.0432 µM | – | – | –
Cc1nc(Cc2n[nH]c(C)n2)n[nH]1 | – | > 100 µM | – | > 100 | – | > 100 | – | > 100 µM | – | > 100 | – | – | > 100 µM | > 100 | > 100 | > 100
CN(/N=C\c1ccc2ccccc2c1)C1=NCCCN1 | – | – | – | 26.8 | – | 27.2 | – | > 100 µM | – | 50.7 | – | 42.1 | > 100 µM | > 100 | 26.4 | 24.6
Clc1ccc(C2=NCON=C2c2ccc(Cl)cc2)cc1 | – | – | – | 49.4 | – | 50.1 | – | 88.7 µM | – | 40.6 | – | 36.2 | > 100 µM | 90.7 | 85.6 | 30.3
COc1ccc(N=Nc2c(N)nn3c(SC)c(C#N)c(N)nc23)cc1 | – | 25.1 µM | – | 39.5 | – | 22.8 | – | 11.7 µM | – | 6.28 | – | 6.91 | 19.3 µM | 34.8 | 7.97 | 34.7
O=C(O)/C=C/c1ccncc1 | – | > 100 µM | – | > 100 | – | > 100 | – | > 100 µM | – | > 100 | – | – | – | > 100 | – | > 100
CCOC(=O)C1CCC(=O)N1C(=O)c1ccc(Cl)cc1 (stereo not given) | – | > 100 µM | – | > 100 | – | > 100 | – | > 100 µM | – | > 100 | – | > 100 | > 100 µM | > 100 | > 100 | > 100
C=CCNC1=C2C[C@@H](C)C[C@@H](OC)[C@H](OC(=O)CCN(C)C)[C@H](C)/C=C(\C)[C@@H](OC(N)=O)[C@H](OC)/C=C\C=C(/C)C(=O)NC(=CC1=O)C2=O | – | 20.1 µM | – | 12.3 | – | > 51.3 | – | 48 µM | – | > 41.9 | – | 40.4 | – | 25.8 | 14.9 | 12.7
CC[C@]1(Cc2ccc(OC)c(OC)c2)C=[N+]([O-])O[C@H](OC2CCCC2(c2ccccc2)c2ccccc2)[C@@H]1OC(=O)C(C)(C)C (stereo not given in full) | – | > 40.8 µM | – | 14.8 | – | > 100 | – | – | – | – | – | 28.7 | 4.45 µM | > 39.9 | > 23.3 | 4.09
CCOC(=O)c1c(-c2ccccc2)c(C)cn1C | – | > 10 µM | – | > 10 | – | – | – | > 10 µM | – | – | – | > 10 | > 10 µM | > 10 | – | –
Cc1ccccc1Nc1nc2ccccc2nc1NS(=O)(=O)c1ccccc1 | – | > 100 µM | – | > 100 | – | > 100 | – | > 100 µM | – | > 100 | – | > 100 | – | > 100 | > 100 | > 100
NC(N)=NCCCC(NC(=O)c1c2ccccc2nc2ccccc12)C(=O)O (stereo not given) | – | > 100 µM | – | > 100 | – | > 100 | – | > 100 µM | – | > 100 | – | – | > 100 µM | > 100 | > 100 | > 100
c1ccc(Nc2nnc(CCCCCCCCc3nnc(Nc4ccccc4)o3)o2)cc1 | – | > 100 µM | – | > 100 | – | > 100 | – | > 100 µM | – | – | – | – | > 100 µM | > 100 | > 100 | > 100
CCOC(=O)c1csc(NC(=O)C(C)N2CCOCC2)n1 (stereo not given) | – | > 100 µM | – | > 100 | – | > 100 | – | > 100 µM | – | > 100 | – | – | > 100 µM | > 100 | > 100 | > 100
O=C(NCc1ccccc1Cl)c1c(O)c2ccccc2[nH]c1=O | – | – | – | > 100 | – | 64.3 | – | > 100 µM | – | > 100 | – | > 100 | > 100 µM | > 100 | > 100 | > 100
O=S(=O)(O)c1cc(O)c(N=Nc2ccc3ccccc3c2O)c2ccccc12 | – | 41.4 µM | – | > 100 | – | > 100 | – | – | – | > 100 | – | > 100 | 31.6 µM | > 100 | – | 25.2
CC(C)(C)OC(=O)NC(Cc1ccc(OCc2ccccc2)cc1)C(=O)NC(CCCCNC(=O)OCc1ccccc1)C(=O)NC(CCCCNC(=O)OCc1ccccc1)C(=O)ON1C(=O)CCC1=O (stereo not given) (Boc-Tyr(Bn)-Lys(Cbz)-Lys(Cbz)-OSu; configuration not given here) | – | > 100 µM | – | 72.1 | – | – | – | 94.8 µM | – | > 100 | – | 49 | > 100 µM | > 100 | 39.3 | > 100
Cn1c(=O)c2c(nc(N/N=C3/SCC(=O)N3Cc3ccccc3)n2C)n(C)c1=O | – | > 100 µM | – | > 100 | – | – | – | > 100 µM | – | 66.3 | – | > 100 | > 100 µM | > 100 | > 100 | > 100
CC(C)=CCC/C(C)=C/C=C/C(C)=C/C1C[C@@]2(C(O)O1)[C@H](CCCO)/C(=C(/C)C=O)CC[C@]2(C)O (stereo not given in full) | – | 32.2 µM | – | 27.7 | – | 27.8 | – | 51 µM | – | – | – | – | – | 55.6 | – | –
COC1OC(C(=O)O)C2OC(C)(C)OC12 (stereo not given) | – | > 100 µM | – | > 100 | – | > 100 | – | > 100 µM | – | > 100 | – | – | > 100 µM | > 100 | > 100 | > 100
Cc1ccc(-n2cc(-c3ccc(Cl)cc3)c3c(=N)n(N)cnc32)cc1 | – | 17.2 µM | – | 28.8 | – | 25.1 | – | 29.9 µM | – | – | – | 17.5 | 34.5 µM | 27.9 | 23.2 | 20.1
Cc1ccc(NC(=O)C(=O)Cc2cccc[n+]2[O-])cc1C | – | > 100 µM | – | > 100 | – | > 100 | – | > 100 µM | – | > 100 | – | – | – | > 100 | – | > 100

— PubChem BioAssay (NCI)
